The results in this text go back to patent publication US8455023B2, “Composition for inhibiting melanogenesis and use thereof” (Kaohsiung Medical University, priority 2010, dated 2013).

Each structure is given as a SMILES string. Read-outs that look alike come from different tables or passages of the source.

Common to all, as to type: cell-based
For data set [1], the system named is Neonatal foreskin primary human epidermal melanocytes (HEMn-MP). In words: Melanin quantitation analysis in HEMn-MP cells. As to conditions: for Cell melanin content (in words): FIG. 2C; for Percentage of cellular melanin concentration (%): control = 100%. The method, then: Lin's method was used to quantify melanin (Lin et al., Constituents from the Formosan apple reduce tyrosinase activity in human epidermal melanocytes 2007 Phytochemistry Volume 68, Issue 8, Pages 1189-1199). Cells were resuspend in 1N NaOH and dimethyl sulfoxide (DSMO), heated at 80° C. for 1 hour, centrifuged for 10 min at 10,000 rpm, and measured OD 405 nm value of supernatant. As shown in Table 3 and FIG. 2C, the control group value was set as 100%. All results obtained from 3 independent experiments.

Data set [2] shares this test system. In words: Toxicity assay (MTS) in human melanocytes. As to the method:
Neonatal foreskin primary human epidermal melanocytes (HEMn-MP) was purchased from Cascade Biologics™, and cultured in 254 medium (Cascade Biologics™) with human melanocyte growth supplement (HMGS, cat. #S-002-5). Cells were maintained at 37° C. humid environment (5% CO2). Neonatal foreskin primary human epidermal melanocytes (HEMn-MP) were cultured in 24-Well plates at seeding density of 10^5 cells/well.
MTS assay (Mosmann T, Rapid colorimetric assay for cellular growth and survival: application to proliferation and cytotoxicity assays J Immunol Methods 1983 16; 65(1-2):55-63) was used for cell toxicity assay. […] The stimulation of MSH to melanin synthesis was used as a reference for comparison of compound (I) and (II). Control group value was set as 100% which obtained from 3 independent experiments.

For another data set, the target named is T1, tyrosinase (Homo sapiens, UniProt P14679).
T1 construct: endogenous in cells; host or cells: HEMn-MP human epidermal melanocytes (lysate in 1% Triton X-100/PBS)
T1 sequence (P14679 19-529): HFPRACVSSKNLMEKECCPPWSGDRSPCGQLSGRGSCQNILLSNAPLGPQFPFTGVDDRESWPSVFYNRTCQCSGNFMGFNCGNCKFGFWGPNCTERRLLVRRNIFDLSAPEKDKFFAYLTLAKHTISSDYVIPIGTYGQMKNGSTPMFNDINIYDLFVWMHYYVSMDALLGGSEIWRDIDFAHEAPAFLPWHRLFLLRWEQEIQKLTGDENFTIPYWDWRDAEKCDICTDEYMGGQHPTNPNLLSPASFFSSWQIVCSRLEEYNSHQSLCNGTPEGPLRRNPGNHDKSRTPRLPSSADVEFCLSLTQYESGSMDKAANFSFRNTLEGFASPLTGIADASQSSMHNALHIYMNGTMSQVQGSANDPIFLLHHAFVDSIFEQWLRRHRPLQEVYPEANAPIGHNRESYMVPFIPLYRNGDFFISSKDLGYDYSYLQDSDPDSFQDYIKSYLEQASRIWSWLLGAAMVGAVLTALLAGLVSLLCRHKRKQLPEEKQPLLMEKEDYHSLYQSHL
In words: Tyrosinase activity assay (dopachrome biosynthesis rate, lysate of treated HEMn-MP cells). As to conditions: for Tyrosinase activity percentage (%): 3 days, control = 100%; for Tyrosinase activity (in words): FIG. 2B. The method, then: Cultured cells were rinsed with […] resuspend in 1% Triton X-100/PBS. Cell lysate was harvested. L-Dopa and L-tyrosine 10 μl (10 mM in 0.1M PBS, pH 6.8) were added and incubated at 37° C. for 3 hours. After reaction, the OD 490 nm value was measured.

Data set [3] has as its system Neonatal foreskin primary human epidermal melanocytes (HEMn-MP). In words: Microscopic appearance of HEMn-MP cells (FIG. 3). The note with it: high concentrations; 200× bright field; FIGS. 3E and 3J. An excerpt: Microscopic images were taken under 200× magnification bright field view. The arrow head indicates bipolar appearance of neonatal foreskin primary human epidermal melanocyte (HEMn-MP).
Under 200× bright field microscope, the control group and low concentration compound (I) and (II) treated cells (FIGS. 3A, 3H, 3I, 3M and 3N) were lined up tightly showing bipolar appearance.

[4] abbreviates: reference, concentration 100 μM.

Consider `O=c1cc(CO)occ1O` [Kojic acid, reference compound], for which the “Cell melanin content (in words)” value in data set [1] is given as “reduced melanin content”. For the same compound, the “Percentage of cellular melanin concentration (%)” value in data set [1] (setting [4]) is reported as 66.34%. Further, in data set [2], the “Cell activity (in words)” value is “less effects on cell activity”. In addition, in data set [2] (human, 100 μM), the “Cell activity percentage (%)” value was 72.87%.
As for `C=C1OC(=O)/C(=C\CCCCCCCCCCCCC)[C@H]1O` [Linderanolide B, linderanolide B], the “Tyrosinase activity percentage (%)” value was 84.15% at tyrosinase (0.01 μM); 72.96% on tyrosinase (0.1 μM (MSH concentration)); 45.91% on tyrosinase (1 μM); 18.04% at tyrosinase (5 μM); 14.59% on tyrosinase (10 μM). At tyrosinase, the “Tyrosinase activity (in words)” value is reported as “reduced along with elevated concentrations”. The “Percentage of cellular melanin concentration (%)” value amounted to 89.63% in data set [1] (0.01 μM); 78.63% in data set [1] (0.1 μM (MSH concentration)); 67.56% in data set [1] (1 μM); 28.93% in data set [1] (5 μM); 24.39% in data set [1] (10 μM). Also, the “Cell melanin content (in words)” value in data set [1] is “cell melanin content decreased”. The “Cell appearance under microscope” value in data set [3] is recorded as “partial toxicity to cells”. For the same compound, the “Cell activity (in words)” value in data set [2] is given as “reduced along with higher concentrations”. Besides, the “Cell activity percentage (%)” value in data set [2] (human, 0.01 μM) was 94.19%; in data set [2] (human, 0.1 μM), 87.52%; in data set [2] (human, 1 μM) it was 83%; in data set [2] (human, 5 μM), 62.41%; in data set [2] (human, 10 μM), 54.26%.
In the case of `NC(=S)Nc1ccccc1` [N-phenylthiourea, reference compound], the “Tyrosinase activity (in words)” value on tyrosinase is recorded as “less effective to tyrosinase activity”. In addition, the “Tyrosinase activity percentage (%)” value at tyrosinase (setting [4]) is 71.07%. In addition, the “Cell melanin content (in words)” value in data set [1] is recorded as “reduced melanin content”. In addition, in data set [1] (setting [4]), the “Percentage of cellular melanin concentration (%)” value was determined as 77.56%. Besides, in data set [2] (100 μM, MTS, control = 100%), the “Cell activity percentage (%)” value is listed as 79.07%. Moreover, in data set [2] (FIG. 2A), the “Cell activity (in words)” value is recorded as “less effects on cell activity”.
Consider `CCCCCCCCCCCCC/C=C1\C(=O)O[C@@](C)(OC)[C@@H]1O` [Subamolide A, subamolide A], for which the “Tyrosinase activity percentage (%)” value was found to be 78.62% on tyrosinase (0.01 μM); 74.21% on tyrosinase (0.1 μM (MSH concentration)); 44.03% on tyrosinase (1 μM); 7.369% at tyrosinase (5 μM); 7.275% on tyrosinase (10 μM). For the same compound, the “Tyrosinase activity (in words)” value at tyrosinase is “reduced along with elevated concentrations”. The “Percentage of cellular melanin concentration (%)” value in data set [1] (0.01 μM) is given as 84.11%; in data set [1] (0.1 μM (MSH concentration)) it was 76.85%; in data set [1] (1 μM) it was 66.1%; in data set [1] (5 μM) it was 25.12%; in data set [1] (10 μM) it was 20.2439%. Also, the “Cell melanin content (in words)” value in data set [1] is “cell melanin content decreased”. Further, the “Cell appearance under microscope” value in data set [3] is reported as “partial toxicity to cells”. The “Cell activity (in words)” value in data set [2] was “reduced along with higher concentrations”. Moreover, the “Cell activity percentage (%)” value in data set [2] (human, 0.01 μM) amounted to 93.41%; in data set [2] (human, 0.1 μM) it was 85.66%; in data set [2] (human, 1 μM), 73.91%; in data set [2] (human, 5 μM) it was 54.69%; in data set [2] (human, 10 μM), 44.91%.
